What was measured:
[1] = Luminescence of probe in the presence of H2O2; type: physicochemical; details: 5 µM probe, 0.5 mM H2O2, HEPES buffer pH 8, 37 °C, time-gated emission
[2] = Luminescence of probe in the presence of glutathione; type: physicochemical; details: 5 µM probe, 100 µM GSH, HEPES buffer pH 8, 37 °C, time-gated emission
LasB = LasB (Pseudomonas aeruginosa, UniProt P14756); details: 1, 5, 7.5, 10 µM probe, 1 mM CaCl2, 60.6 nM (2 µg/mL) LasB, 10 mM HEPES pH 8.0, 37 °C, time-gated emission every 15 min for 10 h, fit to hit-and-run model (Dynafit)
[3] = test system: supernatant from the P. aeruginosa strain producing LasB; assay: Luminescence of probe with LasB-secreting P. aeruginosa supernatant with and without EDTA; type: biochemical, Pseudomonas aeruginosa
[4] = test system: supernatant from P. aeruginosa strain producing LasB; type: biochemical, Pseudomonas aeruginosa; details: P1[Tb]: 0.5 mM probe, 50 mM CaCl2, HEPES buffer, 9 µL supernatant, RT, 1 h before injection
[5] = Luminescence of probe in the presence of pyocyanin and P. aeruginosa supernatant; type: physicochemical
E. coli supernatant = details: 10 µM probe, 1 mM CaCl2, HEPES buffer, 10 µL E. coli supernatant, 20 h at 37 °C, time-gated emission

Chain of LasB (P14756 198-498): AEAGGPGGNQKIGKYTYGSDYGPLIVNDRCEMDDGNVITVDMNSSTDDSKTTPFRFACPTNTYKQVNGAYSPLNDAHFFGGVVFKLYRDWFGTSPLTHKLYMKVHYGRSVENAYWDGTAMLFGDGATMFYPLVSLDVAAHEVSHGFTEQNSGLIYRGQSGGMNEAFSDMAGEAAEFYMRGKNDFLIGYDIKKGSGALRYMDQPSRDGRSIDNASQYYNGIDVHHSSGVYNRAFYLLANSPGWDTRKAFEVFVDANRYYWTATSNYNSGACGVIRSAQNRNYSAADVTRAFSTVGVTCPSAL

EGLAEW [P1[Tb]]
change of luminescence 20 h after addition of H2O2 [1]: remained constant
luminescence response to P. aeruginosa supernatant added after incubation in 1.2% FBS: gradual reduction in the luminescence emission
time of stable luminescence in 1.2% FBS (10 µM probe, 1.2% v/v fetal bovine serum in HEPES buffer, 37 °C, time-gated emission every hour for 12 h): at least 12 h
change of luminescence 20 h after addition of glutathione [2]: remained constant
apparent rate constant ksub (equivalent to specificity constant kcat/Km) (LasB): 0.438 ± 0.007 μM^–1min^–1
reduction of luminescence 3 h after supernatant addition, in the absence of EDTA [3]: approximately 90%
reduction of luminescence 3 h after supernatant addition, with EDTA [3]: approximately 30%
cleavage of probe by wild-type P. aeruginosa supernatant (HPLC-MS) [4]: cleaved at the G-L bond
probe activity toward P. aeruginosa supernatant in the presence of pyocyanin [5]: remained active
reduction of emission band intensity on incubation with pyocyanin ([5]; 5 µM probe, 1 µM pyocyanin, HEPES buffer, 37 °C, time-gated emission): approximately 20%
change of luminescence with E. coli supernatant (E. coli supernatant): no changes in the luminescence

From article PMC11519908, “Luminescent Ln(III)-Metallopeptide Sensors for Monitoring Pseudomonas aeruginosa Elastase B Activity in Complex Biological Media” (ACS Sensors, 2024)
